Reference: patent US6861431B2, “Compounds capable of modulating the activity of multidrug transporters and therapeutic use of the same” (The Board of Trustees of the University of Illinois, priority 2001, dated 2005)
Read-outs that look alike come from different tables or passages of the source. Starred links: 1 amine or outer side, 2 acyl side, 3 side chain; linkers in the order of their positions; H or OH if unused. Positions of bridges follow the written chain, without caps; N, C: chain ends. Non-standard residues stand in square brackets, D forms with d. Residues, ends and D or L forms follow the SMILES beside them. Chains are numbered I, II in the order given. Actinocin(9to1) = Cc1c2oc3c(C)ccc(C(=O)[*:1])c3nc-2c(C(=O)[*:2])c(N)c1=O; NMeV = CN[C@H](C(=O)O)C(C)C; Sar = CNCC(=O)O

Columns and labels:
P-gp [1] = test system: P-gp
Description: (§1) Drug sensitivity assays. To estimate drug-mediated growth inhibition, 10^3 cells were plated per well of 96-well plates, and incubated with a range of concentrations of drugs added 24 hours after plating. After 5 to 7 hours of drug treatment, plates were fixed and stained using 2% methylene blue solution in 50% methanol. After elution by 1% SDS solution, optical density was determined on a Multiscan Ascent reader (Lybsystems, Helsinki, Finland) at 650 nm.
(§2) Drug accumulation and efflux assay. […] For drug efflux assay, cells after drug incubation were washed thoroughly with PBS, incubated in a drug-free media with or without compounds from the chemical library, and harvested at different time points for flow cytometric analysis (18).

ConA cells = assay: Drug sensitivity (growth inhibition) assay, ConA cells; format: cell-based, mouse; conditions: for Change in sensitivity (x-fold): Compound 102 (10 μM), fold resistance; for Effect of Compound 102 on drug sensitivity of cell lines: ConA (Balb 3T3): P-gp-positive ConA cells, label = drug
Description: as §1, with “After 5 to 7 hours of drug treatment, plates were fixed and stained using 2% methylene blue solution in 50% methanol.” left out

P-gp [2] = assay: Rho123 accumulation in ConA cells; format: cell-based, mouse; set-up: effect on Rho123 efflux/accumulation: dose or concentration left out as unconfirmed; conditions: two hours with Rho123, flow cytometry (FIG. 8)
Description: Screening of a chemical library. Murine fibroblastoid cell line (ConA) was selected as the readout system for screening a chemical library for P-gp activators. […] Rho123, a classic fluorescent P-gp substrate that is detected easily using multichannel fluorimeter in living cells, was used as an efflux indicator. […] Primary screening was performed on ConA cells for compounds that interfere with Adr-induced activation of p53-responsive reporter LacZ gene as previously described (11). To identify P-gp modulators, all “hits” isolated after primary screening were tested for their ability to modulate cellular accumulation of Rho123. Con A cells grown in 96-well plates were incubated 4 hours with 0.5 μM Rho123 in combination with individual library compounds (2 μg/ml (2-5 μM)), and cell fluorescence was analyzed using fluorescent microscopy.
as §2
(§3) ConA cells were incubated two hours with Rho123 ([…]) or daunorubicin (500 ng/ml) in the presence of the identified compounds, and accumulation of the drugs was quantitated by flow cytometry.

P-gp [3] = assay: Daunorubicin accumulation in ConA cells; format: cell-based, mouse; conditions: for effect on daunorubicin accumulation: ConA cells, two hours with daunorubicin (500 ng/ml), flow cytometry (FIG. 8)
Description: Drug accumulation and efflux assay. […] For drug efflux assay, cells after drug incubation were washed thoroughly with PBS, incubated in a drug-free media with or without compounds from the chemical library, and harvested at different time points for flow cytometric analysis (18). […]
as §3

mouse ConA cells = assay: DMBA sensitivity of mouse cells; format: cell-based
Description: The effect of the identified compounds on DMBA sensitivity of mouse cells also was tested. It has been reported that ABC type transporters (e.g., P-gp) are involved in the efflux of polycyclic aromatic hydrocarbon carcinogens from cells. The effect of the identified compounds on sensitivity of mouse cells to 7,12-dimethylbenz[a]anthracene (DMBA) was determined. […].

[4] = label = P-gp substrate drug, three groups

## Cc1c2oc3c(C)ccc(C(=O)N[C@@H]4C(=O)N[C@H](C(C)C)C(=O)N5CCC[C@H]5C(=O)N(C)CC(=O)N(C)[C@@H](C(C)C)C(=O)O[C@@H]4C)c3nc-2c(C(=O)N[C@@H]2C(=O)N[C@H](C(C)C)C(=O)N3CCC[C@H]3C(=O)N(C)CC(=O)N(C)[C@@H](C(C)C)C(=O)O[C@@H]2C)c(N)c1=O [Actinomycin D, actinomycin D] (I: T[dV]P[Sar][NMeV] / II: T[dV]P[Sar][NMeV]; ester I:1-I:C, II:1-II:C; linker I:N-II:N via Actinocin(9to1))
P-gp [1]
  cytotoxicity of the drug in the presence of Compound 102: do not change their cytotoxicity
ConA cells; ConA cells
  Change in sensitivity (x-fold): 1 x-fold
ConA cells; ConA cells, drug alone
  LD50: 20 ng/mL
ConA cells; ConA cells, drug in the presence of Compound 102 (10 μM)
  LD50 comp: 20 ng/mL

## CN[C@H]1CCc2cc(OC)c(OC)c(OC)c2-c2ccc(OC)c(=O)cc21 [Colcemide, colcemid]
P-gp [1]; [4]
  cytotoxicity of the drug in the presence of Compound 102: do not change their cytotoxicity

## COc1cc2c(c(OC)c1OC)-c1ccc(OC)c(=O)cc1[C@@H](NC(C)=O)CC2 [Colchicine, colchicine]
ConA cells
  Effect of Compound 102 on drug sensitivity of cell lines: ConA (Balb 3T3): S

## Cc1cc(C)n(CC(O)Cn2c3ccccc3c3ccccc32)n1 (centres unmarked) [Compound 2, 1-Carbazol-9-yl-3-(3,5-dimethyl-pyrazol-1-yl)-propan-2-ol]
P-gp [2]
  effect on Rho123 efflux/accumulation: relatively effective
P-gp [3]
  effect on daunorubicin accumulation: weak influence

## Cc1cc(OCC(=O)Nc2ccc3nn(-c4ccccc4)nc3c2)cc(C)c1Cl [Compound 7, 2-(4-Chloro-3,5-dimethyl-phenoxy)-N-(2-phenyl-2H-benzotriazol-5-yl)-acetamide]
P-gp [2]
  effect on Rho123 efflux/accumulation: relatively effective
P-gp [3]
  effect on daunorubicin accumulation: weak influence

## Cc1ccc2c(C)nc(N/C(N)=N/C(=O)Cc3ccc(Cl)cc3)nc2c1 [Compound 8, N-[2-(4-Chloro-phenyl)-acetyl]-N′-(4,7-dimethyl-quinazolin-2-yl)-guanidine]
P-gp [2]
  effect on Rho123 efflux/accumulation: relatively effective
P-gp [3]
  effect on daunorubicin accumulation: weak influence

## COc1cc2cnc3c(c(Cc4ccccc4)nn3-c3ccccc3)c2cc1OC [Compound 9, 1-Benzyl-7,8-dimethoxy-3-phenyl-3H-pyrazolo[3,4-c]isoquinoline]
P-gp [2]
  effect on Rho123 efflux/accumulation: relatively effective
P-gp [3]
  effect on daunorubicin accumulation: weak influence

## Cc1ccc(OCC(=O)Nc2ccc(O)c(-c3nc4ccccc4o3)c2)cc1 [Compound 10, N-(3-Benzooxazol-2-yl-4-hydroxy-phenyl)-2-p-tolyloxy-acetamide]
P-gp [2]
  effect on Rho123 efflux/accumulation: relatively effective
P-gp [3]
  effect on daunorubicin accumulation: weak influence

## C=CCn1c2ccccc2n2cc(-c3ccccc3)nc12 [Compound 11, 8-Allyl-2-phenyl-8H-1,3a,8-triaza-cyclopenta[a]indene]
P-gp [2]
  effect on Rho123 efflux/accumulation: strong effect
P-gp [3]
  effect on daunorubicin accumulation: two to four times less pronounced effect
Mouse ConA cells
  protection of cells from cytotoxicity of DMBA: strong protective effect

## COc1ccccc1-c1nc(Cc2ccc(Cl)cc2)no1 [Compound 12, 3-(4-Chloro-benzyl)-5-(2-methoxy-phenyl)-[1,2,4]oxadiazole]
P-gp [3]; ConA cells (FIG. 8)
  stimulation of P-gp-mediated efflux of daunorubicin relative to Rho123: more effective

## Nc1nc(SCCc2ccccc2)nc2sc3c(c12)CCCC3 [Compound 13, 2-Phenethylsulfanyl-5,6,7,8-tetrahydro-benzo[4,5]thieno[2,3-d]pyrimidin-4-ylamine]
P-gp [2]
  effect on Rho123 efflux/accumulation: strong effect
P-gp [3]
  effect on daunorubicin accumulation: two to four times less pronounced effect
Mouse ConA cells
  protection of cells from cytotoxicity of DMBA: strong protective effect

## CCOC(=O)Cn1c2ccccc2c2nc3cc4ccccc4cc3nc21 [Compound 14, (5,12,13-Triaza-indeno[1,2-b]anthracen-13-yl)-acetic acid ethyl ester]
P-gp [3]
  effect on daunorubicin accumulation: no effect

## Oc1ccccc1-c1nc(-c2ccccc2O)n(-c2ccccc2)n1 [Compound 15, 2,2′-(1-phenyl-1H-1,2,4-triazole-3,5-diyl)bis-phenol]
P-gp [2]
  effect on Rho123 efflux/accumulation: relatively effective
P-gp [3]
  effect on daunorubicin accumulation: weak influence

## Cc1ccc(-c2nnc(-c3ccccc3Cl)o2)s1 [Compound 16, 2-(2-Chloro-phenyl)-5-(5-methyl-thiophen-2-yl)-[1,3,4]oxadiazole]
P-gp [2]
  effect on Rho123 efflux/accumulation: relatively effective
P-gp [3]
  effect on daunorubicin accumulation: weak influence
Mouse ConA cells
  protection of cells from cytotoxicity of DMBA: strong protective effect

## COc1cccc2c1C(=O)c1c(O)c3c(c(O)c1C2=O)C[C@@](O)(C(C)=O)C[C@@H]3O[C@H]1C[C@H](N)[C@H](O)[C@H](C)O1 [Daunorubicin, daunorubicin]
P-gp [1]
  cytotoxicity of the drug in the presence of Compound 102: less toxic
ConA cells; ConA cells
  Change in sensitivity (x-fold): 2.5 x-fold
ConA cells
  Effect of Compound 102 on drug sensitivity of cell lines: ConA (Balb 3T3): R

## COc1cc([C@@H]2c3cc4c(cc3[C@@H](O[C@@H]3O[C@@H]5CO[C@@H](C)O[C@H]5[C@H](O)[C@H]3O)[C@H]3COC(=O)[C@H]23)OCO4)cc(OC)c1O [Etoposide, etoposide]
P-gp [1]
  cytotoxicity of the drug in the presence of Compound 102: less toxic
ConA cells; ConA cells
  Change in sensitivity (x-fold): 1.5 x-fold
ConA cells
  Effect of Compound 102 on drug sensitivity of cell lines: ConA (Balb 3T3): Minor R

## CCOc1ccc(-c2nc3ccc(-c4nc5ccc(N6CCN(C)CC6)cc5[nH]4)cc3[nH]2)cc1 [Hoechst 33342]
P-gp [1]; [4]
  cytotoxicity of the drug in the presence of Compound 102: more potent
ConA cells
  Effect of Compound 102 on drug sensitivity of cell lines: ConA (Balb 3T3): S?

## COc1ccc(C[C@H](N)C(=O)N[C@H]2[C@@H](O)[C@H](n3cnc4c(N(C)C)ncnc43)O[C@@H]2CO)cc1 [Puromycin, puromycin]
P-gp [1]
  cytotoxicity of the drug in the presence of Compound 102: do not change their cytotoxicity
ConA cells; ConA cells
  Change in sensitivity (x-fold): 1 x-fold

## CC(=O)O[C@H]1C(=O)[C@@]2(C)[C@H]([C@H](OC(=O)c3ccccc3)[C@]3(O)C[C@H](OC(=O)[C@H](O)[C@@H](NC(=O)c4ccccc4)c4ccccc4)C(C)=C1C3(C)C)[C@]1(OC(C)=O)CO[C@@H]1C[C@@H]2O [Taxol, taxol]
P-gp [1]
  cytotoxicity of the drug in the presence of Compound 102: more potent
ConA cells; ConA cells
  Change in sensitivity (x-fold): 0.3 x-fold
ConA cells
  Effect of Compound 102 on drug sensitivity of cell lines: ConA (Balb 3T3): S

## CC[C@]1(O)C[C@@H]2CN(CCc3c([nH]c4ccccc34)[C@@](C(=O)OC)(c3cc4c(cc3OC)N(C)[C@H]3[C@@](O)(C(=O)OC)[C@H](OC(C)=O)[C@]5(CC)C=CCN6CC[C@]43[C@@H]65)C2)C1 [Vinblastine, vinblastine]
P-gp [1]
  cytotoxicity of the drug in the presence of Compound 102: more potent
ConA cells; ConA cells
  Change in sensitivity (x-fold): 0.5 x-fold
ConA cells
  Effect of Compound 102 on drug sensitivity of cell lines: ConA (Balb 3T3): S

## CC[C@]1(O)C[C@H]2CN(CCc3c([nH]c4ccccc34)[C@@](C(=O)OC)(c3cc4c(cc3OC)N(C=O)[C@H]3[C@@](O)(C(=O)OC)[C@H](OC(C)=O)[C@]5(CC)C=CCN6CC[C@]43[C@@H]65)C2)C1 [Vincristine, vincristine]
P-gp [1]
  cytotoxicity of the drug in the presence of Compound 102: more potent
ConA cells; ConA cells
  Change in sensitivity (x-fold): 0.5 x-fold
ConA cells
  Effect of Compound 102 on drug sensitivity of cell lines: ConA (Balb 3T3): S

## C=C1[C@@H](C)[C@H]2[C@H](Cc3ccccc3)NC(=O)[C@]23[C@H](OC(C)=O)/C=C/[C@@](C)(O)C(=O)[C@@H](C)C/C=C/[C@H]3[C@@H]1O [cytochalasin D]
P-gp [1]; [4]
  cytotoxicity of the drug in the presence of Compound 102: do not change their cytotoxicity

## Rhodamine 123
P-gp [1]
  cytotoxicity of the drug in the presence of Compound 102: less toxic
ConA cells
  Effect of Compound 102 on drug sensitivity of cell lines: ConA (Balb 3T3): R

## gramicidin D [Gramicidine D]
P-gp [1]; [4]
  cytotoxicity of the drug in the presence of Compound 102: more potent
ConA cells
  Effect of Compound 102 on drug sensitivity of cell lines: ConA (Balb 3T3): S
